This note sets out measurements from US11932657B2, “Heterocyclic compound” (priority 2018, dated 2024).

Test [1] deals with immortalized megakaryocyte line (SeV2-MKCL). In words: Platelet production: static culturing of immortalized megakaryocyte line. The note with it: compound final concentration 0.1 μM, static culturing 6 to 7 days, control (DMSO) set to 1; platelets = CD41, CD42b and CD42a-positive cells. Type of test: cell-based. As for the experimental part: Test Example 2 (Platelet Production: Static Culturing)
The immortalized megakaryocyte line (SeV2-MKCL) obtained according to the method described in WO 2016/204256 was washed twice with D-PBS(−) and then cultured in medium not containing doxycycline to terminate forced expression. Culturing was implemented by seeding the cells at 1 mL/well in a 24-well plate (#662160 (Greiner Rio-One)) at a seeding density of 1×10^5 cells/mL followed by static culturing in the medium indicated below.
The medium was obtained by adding the following components to IMDM serving as the basal medium (concentrations indicate final concentrations).
Culturing was implemented under conditions of 37° C. and 5% CO2. At the same time, the compound of the present invention (final concentration 0.1 μM) or DMSO (control) was added and cultured for 6 to 7 days. Thereafter, the number of platelets (CD41, CD42b, and CD42a-positive cells) was measured. The measurement method was as shown below. The same procedure was performed with the control.
A portion of the culture supernatant was harvested 6 to 7 days after culturing to terminate gene expression, and suspended with the following antibodies to stain them. eFluor 450-labeled anti-CD42a antibody (#48-0428-42 (eBioscience)) PE-labeled anti-CD42b antibody (#303906 (BioLegend)) APC-labeled anti-CD41 antibody (#303710 (BioLegend)) The number of platelets was counted using FACSVerse manufactured by BD 30 minutes after the stain reaction. In the measurement of the number of platelets, the number of cells was corrected using Flow-count beads (#7547053 (Beckman Coulter)).
The number of platelets produced from one megakaryocyte cell was calculated based on the number of platelets in the sample obtained by the FACS measurement, and the result was defined as platelet production efficiency (PLT/MK) and used for evaluation of drug efficacy of the compound. In addition, the specific activity at the time when the platelet production efficiency of the control was set to 1 was indicated as fold increase.

Test [2] concerns the target T1, aryl hydrocarbon receptor (AhR) (Homo sapiens, UniProt P35869).
T1 construct: DRE-Luc HepG2 cells subcultured in a 225 cm^2 flask; endogenous in cells; host or cells: HepG2 (ATCC), stably transfected with the reporter hCYP1A1/pGL4.27 (DRE-Luc HepG2)
T1 sequence (P35869 11-848): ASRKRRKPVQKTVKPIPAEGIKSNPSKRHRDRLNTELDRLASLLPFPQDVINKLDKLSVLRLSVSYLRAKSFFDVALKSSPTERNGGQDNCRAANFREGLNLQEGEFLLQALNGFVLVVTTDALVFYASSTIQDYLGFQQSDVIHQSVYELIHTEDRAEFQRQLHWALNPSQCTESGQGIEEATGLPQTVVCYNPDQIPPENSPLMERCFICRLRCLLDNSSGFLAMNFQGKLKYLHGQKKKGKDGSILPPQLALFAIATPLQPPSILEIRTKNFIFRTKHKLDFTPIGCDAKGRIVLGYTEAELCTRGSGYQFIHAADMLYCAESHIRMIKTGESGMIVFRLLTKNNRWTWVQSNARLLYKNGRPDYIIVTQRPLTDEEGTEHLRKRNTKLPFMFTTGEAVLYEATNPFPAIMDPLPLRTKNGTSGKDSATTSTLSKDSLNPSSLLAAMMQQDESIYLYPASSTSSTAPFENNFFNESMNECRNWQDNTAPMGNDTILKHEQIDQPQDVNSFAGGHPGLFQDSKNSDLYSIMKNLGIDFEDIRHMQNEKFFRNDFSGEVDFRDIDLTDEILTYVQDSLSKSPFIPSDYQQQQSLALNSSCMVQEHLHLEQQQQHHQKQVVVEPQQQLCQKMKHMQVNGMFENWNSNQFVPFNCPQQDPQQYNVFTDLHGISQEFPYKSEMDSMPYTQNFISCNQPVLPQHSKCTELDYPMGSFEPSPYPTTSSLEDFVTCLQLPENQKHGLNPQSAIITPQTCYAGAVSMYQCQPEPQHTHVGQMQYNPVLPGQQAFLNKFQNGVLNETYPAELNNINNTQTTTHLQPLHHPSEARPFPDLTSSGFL
In words: AhR reporter gene assay (aryl hydrocarbon receptor antagonist activity, DRE-Luc HepG2 cells, TCDD-stimulated luciferase). It is filed as cell-based. As for the experimental part: Test Example 1 (Aryl Hydrocarbon Receptor Antagonist Activity)
An expression vector, hCYP1A1/pGL4.27 was introduced into HepG2 cells (derived from American Type Culture Collection (ATCC)) that were seeded in 6-well plates (#3810-006 (Iwaki)) at 1.2×10^6 cells/well, using Lipofectamine 3000 (#100022050 (Invitrogen)). Referring to Garrion P M et al., Fundam Appl Toxicol, 30, 194 (1996), the vector hCYP1A1/pGL4.27 incorporated the human CYP1A1 promotor region including dioxin responsive element (DRE) region of the AhR binding region into the XhoI-BglII restriction enzyme site of pGL4.27 (#E8451 (Promega)). After 24 hours, medium-1 was replaced, and after 48 hours, the medium-1 containing hygromycin B (200 to 1000 μg/mL) was subjected to drug treatment. Culturing using the medium containing hygromycin B was continued for about 1 month to clone 24 clones showing drug resistance. A cell line showing high reporter activity was selected (DRE-Luc HepG2) from drug resistant lines using as an indicator luciferase activity (Dual-Glo Luciferase substrate, #E297A (Promega)) relative to an AhR agonist, 2,3,7,8-tetrachlorodibenzo-p-dioxin (TCDD) (#ED-901-B (CIL.)).
DRE-Luc HepG2 cells subcultured in a 225 cm^2 flask (#11-0005 (Iwaki)) were washed with PBS (#1419-144 (Gibco), Lot: 1896207), and thereto was added 8 mL of Trypsin-EDTA (0.05%) (#25300-054 (Gibco)). Thereafter, an excessive liquid was removed from the mixture, and the cells were stood at room temperature for 5 minutes. Thereto was added 10 mL of medium-2, the cells were recovered through a cell strainer (#352350 (Falcon), 70 μm), and the number of cells were then counted using a hemocytometer. A cell suspension was prepared at 3×10^5 cells/mL, 100 μL/well of the cell suspension was seeded into a 96-well white plate (#136101, F96 Microwell (Nunc)), and the cells were then cultured in a CO2 incubator (5% CO2, 37° C.). After 24 hours, the medium was aspirated, and thereto was added 100 μL of an assay medium solution including the compound of the present invention, and the cells were cultured in the CO2 incubator (5% CO2, 37° C.). After 24 hours, 11 μL of an assay medium solution including 5×10^−10 M TCDD (#ED-901-B (CIL.)) was added thereto and the cells were cultured in the CO2 incubator (5% CO2, 37° C.). After 24 hours, 50 μL of a reaction substrate (#E253B, Steady-Glo Luciferase substrate (Promega)) for Firefly Luciferase enzyme reaction was added to each well, and after 5 minute-shaking, the light emission intensity was measured with Wallac ARVO 1420sx (PerkinElmer).
In general terms: Reporter assays use an easily measured gene product as a stand-in for the process of interest.

SMILES strings stand for the structures.

In general, IC50 refers to the concentration that gives 50% inhibition. A higher IC50 goes with a need for much substance. With `CC1(C)COc2nc3c(NCCc4ccc(O)c(-c5cccc(F)c5)c4)nc(-c4cncc(F)c4)nc3n21` [Example 3], in test [1], the “Static (vs veh): fold increase of platelet production efficiency (PLT/MK)” value (shortened to “Static (vs veh): fold increase”) amounted to 6.8. Moreover, half-maximal inhibition in test [2] (IC50) was put at 2.9 nM.
Take `CC1(C)COc2nc3c(NCCc4ccc(O)c(-c5ccc(F)cc5)c4)nc(-c4cncc(F)c4)nc3n21` [Example 4]: the “Static (vs veh): fold increase” value in test [1] came to 6.7. For the same compound, the IC50 in test [2] came out at 5 nM.
For `CC1(C)COc2nc3c(NCCc4ccc(O)c(-c5ccccc5Cl)c4)nc(-c4cncc(F)c4)nc3n21` [Example 5], in test [1], the “Static (vs veh): fold increase” value is on record as 5.1. Besides, half-maximal inhibition in test [2] (IC50) required 36 nM.
`CC1(C)COc2nc3c(NCCc4ccc(O)c(-c5cccc(Cl)c5)c4)nc(-c4cncc(F)c4)nc3n21` [Example 6]: in test [1], the “Static (vs veh): fold increase” value was found to be 3.7. Further, half-maximal inhibition in test [2] (IC50) required 10 nM.
In the case of `CC1(C)COc2nc3c(NCCc4ccc(O)c(-c5ccc(Cl)cc5)c4)nc(-c4cncc(F)c4)nc3n21` [Example 7], the “Static (vs veh): fold increase” value in test [1] stood at 7.3. The compound further displayed an IC50 in test [2] of 9.1 nM.
On the same counts, the results for `CC1(C)CSc2nc3c(NCCc4ccc(O)c(-c5ccccc5F)c4)nc(-c4cncc(F)c4)nc3n21` [Example 8] are 5.1 and 0.11 nM.
`CC1(C)CSc2nc3c(NCCc4ccc(O)c(-c5cccc(F)c5)c4)nc(-c4cncc(F)c4)nc3n21` [Example 9]: the “Static (vs veh): fold increase” value in test [1] was determined as 4.9. The same compound gave an IC50 in test [2] of 0.32 nM.
On to `CC1(C)COc2nc3c(NCCc4ccc(O)c(-c5cc(F)ccc5F)c4)nc(-c4cncc(F)c4)nc3n21` [Example 10], for which the “Static (vs veh): fold increase” value in test [1] amounted to 5.5. In addition, the IC50 in test [2] amounted to 11 nM.
In the case of `CC1(C)COc2nc3c(NCCc4ccc(O)c(-c5cccc(F)c5F)c4)nc(-c4cncc(F)c4)nc3n21` [Example 11], the “Static (vs veh): fold increase” value in test [1] stood at 8.5. For the same compound, in test [2], the IC50 turned out to be 6.4 nM.
For the compound `CC1(C)COc2nc3c(NCCc4ccc(O)c(-c5cc(F)cc(F)c5)c4)nc(-c4cncc(F)c4)nc3n21` [Example 12], in test [1], the “Static (vs veh): fold increase” value is on record as 7.6. The same compound yielded an IC50 in test [2] of 12 nM.
As for `COc1cccc(-c2cc(CCNc3nc(-c4cncc(F)c4)nc4c3nc3n4C(C)(C)CO3)ccc2O)c1` [Example 13, 4-[2-[[2-(5-fluoropyridin-3-yl)-8,8-dimethyl-7H-purino[8,9-b][1,3]oxazol-4-yl]amino]ethyl]-2-(3-methoxyphenyl)phenol], the “Static (vs veh): fold increase” value in test [1] turned out to be 4.7. The IC50 in test [2] was determined as 29 nM.
On the same counts, the results for `Cc1cccc(-c2cc(CCNc3nc(-c4cncc(F)c4)nc4c3nc3n4C(C)(C)CO3)ccc2O)c1` [Example 14] are 7.9 and 11 nM.
Take `CCc1cccc(-c2cc(CCNc3nc(-c4cncc(F)c4)nc4c3nc3n4C(C)(C)CO3)ccc2O)c1` [Example 15]: the “Static (vs veh): fold increase” value in test [1] was determined as 11. For the same compound, the IC50 in test [2] came out at 5.5 nM.
For the compound `CC1(C)COc2nc3c(NCCc4ccc(O)c(-c5cccc(C(F)(F)F)c5)c4)nc(-c4cncc(F)c4)nc3n21` [Example 16], the “Static (vs veh): fold increase” value in test [1] is recorded as 10. Further, in test [2], the midpoint of inhibition, the IC50, lay at 3.9 nM.
With `CC1(C)COc2nc3c(NCCc4ccc(O)c(-c5cccc(C#N)c5)c4)nc(-c4cncc(F)c4)nc3n21` [Example 17, 3-[5-[2-[[2-(5-fluoropyridin-3-yl)-8,8-dimethyl-7H-purino[8,9-b][1,3]oxazol-4-yl]amino]ethyl]-2-hydroxyphenyl]benzonitrile], the “Static (vs veh): fold increase” value in test [1] was 7.8. Further, it took 2.3 nM to reach half-maximal inhibition in test [2] (IC50).
For `CC1(C)COc2nc3c(NCCc4ccc(O)c(-c5ccc(C#N)cc5)c4)nc(-c4cncc(F)c4)nc3n21` [Example 18], in test [1], the “Static (vs veh): fold increase” value is 7.3. This compound also showed an IC50 in test [2] of 6.9 nM.
Take `CC1(C)C[S+]([O-])c2nc3c(NCCc4ccc(O)c(-c5ccccc5F)c4)nc(-c4cncc(F)c4)nc3n21` (centres unmarked) [Example 20]: the “Static (vs veh): fold increase” value in test [1] is reported as 6.5. Half-maximal inhibition in test [2] (IC50) required 0.058 nM.
Take `CC1(C)C[S+]([O-])c2nc3c(NCCc4ccc(O)c(-c5cccc(F)c5)c4)nc(-c4cncc(F)c4)nc3n21` (centres unmarked) [Example 21]: in test [1], the “Static (vs veh): fold increase” value is on record as 4.7. The IC50 in test [2] is 0.033 nM.
On the same counts, the results for `Cc1cncc(-c2nc(NCCc3ccc(O)c(-c4ccccc4)c3)c3nc4n(c3n2)C(C)(C)CO4)c1` [Example 22] are 7.3 and 9.8 nM.
Turning to `Cc1cncc(-c2nc(NCCc3ccc(O)c(-c4ccccc4F)c3)c3nc4n(c3n2)C(C)(C)CO4)c1` [Example 23], in test [1], the “Static (vs veh): fold increase” value was 8.0. This compound yielded an IC50 in test [2] of 9.6 nM.
On the same counts, the results for `Cc1cncc(-c2nc(NCCc3ccc(O)c(-c4cccc(F)c4)c3)c3nc4n(c3n2)C(C)(C)CO4)c1` [Example 24] are 7.7 and 3.9 nM.
On the same counts, the results for `Cc1cncc(-c2nc(NCCc3ccc(O)c(-c4ccc(F)cc4)c3)c3nc4n(c3n2)C(C)(C)CO4)c1` [Example 25] are 5.7 and 4.4 nM.
